The text below walks through data of ChEMBL document CHEMBL2396574, “Design, synthesis and evaluation of retinoids with novel bulky hydrophobic partial structures” (Bioorg Med Chem, 2013).

For assay [1], the system named is HL-60. The assay is described as follows: Induction of human HL60 cell differentiation into myeloid cells at 10^-6 M after 4 days by NBT reduction assay. Type of assay: functional, cell-based.
In assay [2] the test system is HL-60. Kind of assay: Induction of human HL60 cell differentiation into myeloid cells at 100 nM after 4 days by NBT reduction assay relative to control. Type of assay: functional.
Assay [3] has as its system HL-60. The assay is described as follows: Induction of human HL60 cell differentiation into myeloid cells at 10 nM after 4 days by NBT reduction assay relative to control. It counts as functional.
Assay [4] concerns the target T1, Retinoic acid receptor RXR-gamma (Homo sapiens) (UniProt P48443).
T1 sequence (whole entry): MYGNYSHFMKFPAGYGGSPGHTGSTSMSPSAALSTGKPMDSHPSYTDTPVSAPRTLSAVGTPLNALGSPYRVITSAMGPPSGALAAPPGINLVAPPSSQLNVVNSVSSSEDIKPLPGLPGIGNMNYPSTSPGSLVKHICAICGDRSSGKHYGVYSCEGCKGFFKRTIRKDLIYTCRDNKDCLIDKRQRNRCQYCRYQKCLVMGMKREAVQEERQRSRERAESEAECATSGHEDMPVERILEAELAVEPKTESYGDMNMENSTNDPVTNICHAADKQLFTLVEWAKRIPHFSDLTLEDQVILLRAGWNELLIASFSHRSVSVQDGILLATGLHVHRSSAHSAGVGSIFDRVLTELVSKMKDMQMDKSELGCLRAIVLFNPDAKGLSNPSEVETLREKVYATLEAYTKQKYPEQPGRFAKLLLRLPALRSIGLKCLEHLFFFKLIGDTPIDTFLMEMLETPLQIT
The assay is described as follows: Transactivation of full-length RXRgamma (unknown origin) expressed in African green monkey COS1 cells at 1000 nM by luciferase reporter gene assay. Type of assay: cell-based. The note with it: COS-1.

The target in assay [5] is T2, Retinoic acid receptor RXR-beta (Homo sapiens) (UniProt P28702).
T2 sequence (whole entry): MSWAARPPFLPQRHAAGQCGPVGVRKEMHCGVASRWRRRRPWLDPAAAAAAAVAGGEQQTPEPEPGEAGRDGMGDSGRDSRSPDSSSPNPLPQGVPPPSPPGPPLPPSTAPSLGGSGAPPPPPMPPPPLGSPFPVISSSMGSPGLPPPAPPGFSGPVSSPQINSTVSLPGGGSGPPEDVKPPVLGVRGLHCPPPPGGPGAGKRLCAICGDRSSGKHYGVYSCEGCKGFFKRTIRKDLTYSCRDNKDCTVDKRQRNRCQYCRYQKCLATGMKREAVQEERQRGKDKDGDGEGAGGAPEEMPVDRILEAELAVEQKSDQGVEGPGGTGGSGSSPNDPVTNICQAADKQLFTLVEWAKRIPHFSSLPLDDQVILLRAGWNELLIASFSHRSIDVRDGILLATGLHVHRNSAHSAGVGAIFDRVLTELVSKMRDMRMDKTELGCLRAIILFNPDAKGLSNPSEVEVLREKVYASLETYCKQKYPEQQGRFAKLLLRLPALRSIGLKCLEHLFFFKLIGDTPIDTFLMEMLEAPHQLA
The assay is described as follows: Transactivation of full-length RXRbeta (unknown origin) expressed in African green monkey COS1 cells at 1000 nM by luciferase reporter gene assay. It counts as cell-based. The note with it: COS-1.

Assay [6] addresses T3, Retinoic acid receptor gamma (Homo sapiens) (UniProt P13631).
T3 sequence (whole entry): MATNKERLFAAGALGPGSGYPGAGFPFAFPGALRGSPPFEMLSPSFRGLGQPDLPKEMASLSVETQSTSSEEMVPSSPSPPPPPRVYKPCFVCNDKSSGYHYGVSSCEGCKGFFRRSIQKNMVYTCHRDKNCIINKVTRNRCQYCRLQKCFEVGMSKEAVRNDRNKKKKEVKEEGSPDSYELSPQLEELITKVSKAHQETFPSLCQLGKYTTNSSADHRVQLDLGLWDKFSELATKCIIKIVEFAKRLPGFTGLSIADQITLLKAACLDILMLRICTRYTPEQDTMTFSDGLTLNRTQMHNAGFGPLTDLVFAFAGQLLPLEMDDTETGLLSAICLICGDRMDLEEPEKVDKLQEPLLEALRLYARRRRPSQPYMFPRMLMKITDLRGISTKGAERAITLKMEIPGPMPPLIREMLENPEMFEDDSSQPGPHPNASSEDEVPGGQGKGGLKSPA
The assay is described as follows: Transactivation of Gal4-fused RARgamma (unknown origin) expressed in African green monkey COS1 cells at 100 nM by luciferase reporter gene assay relative to DMSO-treated control. It counts as cell-based. To be noted: COS-1.

In assay [7] the target is T4, Retinoic acid receptor beta (Homo sapiens) (UniProt P10826).
T4 sequence (whole entry): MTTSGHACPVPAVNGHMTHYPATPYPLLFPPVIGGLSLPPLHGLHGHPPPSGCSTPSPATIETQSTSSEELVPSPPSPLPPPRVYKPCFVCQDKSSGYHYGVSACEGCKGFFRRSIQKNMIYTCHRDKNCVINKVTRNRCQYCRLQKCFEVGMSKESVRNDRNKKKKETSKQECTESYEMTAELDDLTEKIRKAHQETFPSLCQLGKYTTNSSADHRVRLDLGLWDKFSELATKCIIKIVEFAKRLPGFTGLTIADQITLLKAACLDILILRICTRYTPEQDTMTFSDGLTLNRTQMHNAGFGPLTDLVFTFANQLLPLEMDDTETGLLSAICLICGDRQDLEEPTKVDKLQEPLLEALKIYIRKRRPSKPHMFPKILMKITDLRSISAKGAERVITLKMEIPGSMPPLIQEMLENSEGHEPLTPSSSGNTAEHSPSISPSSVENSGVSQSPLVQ
The assay is described as follows: Transactivation of Gal4-fused RARbeta (unknown origin) expressed in African green monkey COS1 cells at 100 nM by luciferase reporter gene assay relative to DMSO-treated control. Type of assay: cell-based. To be noted: COS-1.

The source made the active and inactive calls. The calls are words filed in the database; no cut-off is given here.

Consider `O=C(Nc1ccc(C(=O)O)c(F)c1)c1cc2c3c(c1)CCCCC3CCCC2`, for which, in assay [1], the outcome was Active. Besides, the Activity is on record as 44% in assay [2] and 28% in assay [3]. Besides, the result in assay [4] and in assay [5] was inactive. Besides, the figures for the fold change (FC) in assay [6] and in assay [7] were 5 and 19, respectively.

Take `O=C(O)c1ccc(NC(=O)c2cc3c4c(c2)CCCC4CCC3)cc1`: the Activity came out at 38% in assay [2] and 27% in assay [3]. Moreover, the outcome in assay [4] and in assay [5] was inactive. Moreover, the figures for the fold change (FC) in assay [6] and in assay [7] were 3 and 18, respectively.

For the compound `O=C(O)c1ccc(NC(=O)c2cc3cc(c2)CCCCCCCCCC3)cc1`, the Activity in assay [2] was 38%; in assay [3] it was 30%. In addition, the outcome in assay [4] and in assay [5] was inactive. For the same compound, the fold change (FC) is 1 in assay [6] and 13 in assay [7].

As to `CC12CCCc3cc(C(=O)Nc4ccc(C(=O)O)cn4)cc(c31)CCC2`, the Activity in assay [2] was determined as 61%; in assay [3], 41%. In addition, the result in assay [4] and in assay [5] was inactive. In addition, the fold change (FC) amounted to 25 in assay [6] and 40 in assay [7].

As for `O=C(O)c1ccc(C(=O)Nc2cc3c4c(c2)CCCCC4CCCC3)cc1`, the Activity in assay [2] is 53%; in assay [3], 13%. Moreover, the result in assay [4] and in assay [5] was inactive. The fold change (FC) in assay [6] came out at 1; in assay [7], 13.

For `O=C(O)c1ccc(NC(=O)c2cc3c4c(c2)CCCCC4CCCC3)cc1`, the results for the Activity in assay [2] and in assay [3] were 40% and 34%, respectively. The result in assay [4] and in assay [5] was inactive. The fold change (FC) turned out to be 10 in assay [6] and 27 in assay [7].

On to `O=C(O)c1ccc(C(=O)Nc2cc3c4c(c2)CCCC4CCC3)nc1`, for which the Activity was found to be 5% in assay [2] and 2% in assay [3]. For the same compound, the result in assay [4] and in assay [5] was inactive. Further, the fold change (FC) in assay [6] was 7; in assay [7], 16.

For the compound `CC12CCCc3cc(NC(=O)c4ccc(C(=O)O)cn4)cc(c31)CCC2`, the Activity in assay [2] is reported as 16%; in assay [3], 5%. For the same compound, the result in assay [4] and in assay [5] was inactive. In addition, the fold change (FC) in assay [6] worked out at 2; in assay [7], 26.

For the compound `O=C(Nc1ccc(C(=O)O)c(O)c1)c1cc2c3c(c1)CCCC3CCC2`, the Activity in assay [2] was 42%; in assay [3], 24%. Moreover, the result in assay [4] and in assay [5] was inactive. The fold change (FC) in assay [6] came out at 2; in assay [7], 6.

Consider `O=C(O)c1ccc(C(=O)Nc2cc3c4c(c2)CCCC4CCC3)cc1`, for which the Activity in assay [2] is on record as 18%; in assay [3] it was 7%. In addition, the result in assay [4] and in assay [5] was inactive. Also, the fold change (FC) turned out to be 1 in assay [6] and 5 in assay [7].

As for `O=C(O)c1ccc(C(=O)Nc2cc3cc(c2)CCCCCCCCCC3)cc1`, the values for the Activity in assay [2] and in assay [3] were 37% and 16%, respectively. Further, the outcome in assay [4] and in assay [5] was inactive. The fold change (FC) in assay [6] amounted to 1; in assay [7], 8.

As to `CC12CCCc3cc(C(=O)Nc4ccc(C(=O)O)c(O)c4)cc(c31)CCC2`, the Activity in assay [2] is on record as 32%; in assay [3], 17%. The result in assay [4] and in assay [5] was inactive. Besides, the fold change (FC) in assay [6] came to 1; in assay [7], 7.
